# Data published in ChEMBL document CHEMBL1201862, “PubChem BioAssay data set” (2004).
# Calls of active or inactive are those of the source.
# Key:
# Prothrombin = Prothrombin (Homo sapiens, UniProt P00734); assay: Thrombin 1536 HTS Dose Response Confirmation. [Related pubchem assays: 1046 (Thrombin 1536 HTS; hits were confirmed in this assay)]; format: functional
# [1] = molecular target: T1, Corticotropin-releasing factor receptor 2/Corticotropin-releasing factor-binding protein (Homo sapiens, UniProt P24387+Q13324); assay: Dose Response confirmation of uHTS hits for small molecule antagonists of the CRF-binding protein and CRF-R2 receptor complex.; format: functional; conditions: read-out: IC50_Mean
# T1 sequence (Q13324 whole entry): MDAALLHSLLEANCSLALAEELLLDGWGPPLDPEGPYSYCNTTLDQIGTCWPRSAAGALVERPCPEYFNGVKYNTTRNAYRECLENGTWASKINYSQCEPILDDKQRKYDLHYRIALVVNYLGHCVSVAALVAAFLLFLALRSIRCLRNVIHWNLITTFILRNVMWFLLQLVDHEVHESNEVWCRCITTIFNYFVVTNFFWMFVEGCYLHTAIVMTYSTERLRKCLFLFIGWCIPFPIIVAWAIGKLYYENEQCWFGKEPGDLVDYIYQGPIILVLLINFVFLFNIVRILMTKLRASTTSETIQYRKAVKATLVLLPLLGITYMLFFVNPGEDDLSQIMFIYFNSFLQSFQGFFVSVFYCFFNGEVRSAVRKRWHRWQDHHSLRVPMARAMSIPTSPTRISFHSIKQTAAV
# T1 sequence (P24387 whole entry): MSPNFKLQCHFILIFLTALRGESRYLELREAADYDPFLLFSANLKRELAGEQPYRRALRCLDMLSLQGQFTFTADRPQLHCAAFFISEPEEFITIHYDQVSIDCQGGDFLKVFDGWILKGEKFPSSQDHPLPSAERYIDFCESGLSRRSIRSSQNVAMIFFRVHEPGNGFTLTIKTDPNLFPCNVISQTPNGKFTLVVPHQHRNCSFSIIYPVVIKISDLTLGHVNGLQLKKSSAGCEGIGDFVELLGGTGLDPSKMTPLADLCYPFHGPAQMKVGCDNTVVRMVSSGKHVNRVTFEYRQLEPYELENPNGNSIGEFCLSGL
# [2] = molecular target: T1, Corticotropin-releasing factor receptor 2/Corticotropin-releasing factor-binding protein; assay: activators of CRF receptor 2 with binding protein – uHTS hits, confirmation (AID 602473); format: functional; conditions: read-out: EC50_Mean
# [3] = cytotoxicity in HEK-293T cells, dose response, cytotoxicity control for BCR NF-kB inhibitor project, luminescence, B-cell screen hits (AID 489021); format: functional, cell-based;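 also: HEK-293T cells carrying an NF-kB luciferase reporter; cells exposed to compound for about 14 hours before viability readout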
# [4] = molecular target: Glucose-6-phosphate 1-dehydrogenase (Homo sapiens, UniProt P11413); assay: human G6PD enzyme inhibitors, dose response, selectivity assay for P. falciparum G6PD inhibitor project, biochemical, fluorescence (AID 504792); format: functional
# [5] = HEp-2 cell cytotoxicity, dose response, cytotoxicity control for RSV inhibitor project, HTS (AID 2410); format: functional; conditions: human respiratory syncytial virus
# HEK293 = assay: inhibitors of LMP1-driven NF-kB reporter, dose response, cell-based, HEK293, luciferase, cherry-pick (AID 588343); format: functional; conditions: Homo sapiens
# Cytochrome P450 2C9 = Cytochrome P450 2C9 (Homo sapiens, UniProt P11712)
# SUMO-activating enzyme = SUMO-activating enzyme (Homo sapiens, UniProt Q9UBT2); assay: SUMOylation inhibitor hit validation, confirmation, SUMOylation inhibitor project, biochemical, AlphaScreen (AID 2018); format: functional
# [6] = Shn3 3'UTR reporter inhibitors, dose response, cell-based, Clone20 osteoblasts, firefly luciferase, cherry-picked (AID 624132); format: functional;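 also: firefly luciferase luminescence from reporter carrying the Shn3 3'UTR in osteoblasts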
# [7] = HepG2 cell cytotoxicity, dose response, cytotoxicity control for Shn3 inhibitor project, CellTiter-Glo, cherry-picked (AID 624134); format: functional, cell-based
# [8] = control 3'UTR Renilla luciferase suppression, dose response, counter-screen for Shn3 inhibitor project, cell-based, Clone20-Shn3RL, cherry-picked (AID 624133); format: functional
# Fatty acid synthase [9] = molecular target: T2, Fatty acid synthase (Homo sapiens, UniProt P49327); assay: FAS thioesterase domain inhibitors, dose response, biochemical, endpoint fluorescence intensity, uHTS hits (AID 624327); format: functional;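 also: fluorescence from hydrolysis of an O-methyl fluorescein acyl ester substrate by the enzyme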
# Fatty acid synthase [10] = molecular target: T2, Fatty acid synthase; assay: FAS thioesterase domain inhibitors, dose response, biochemical, kinetic fluorescence intensity (AID 624326); format: functional;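 also: rate of fluorescence rise from hydrolysis of a fluorogenic O-methyl fluorescein ester substrate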
# [11] = molecular target: DNA dC->dU-editing enzyme APOBEC-3G (Homo sapiens, UniProt Q9HC16); assay: Dose Response confirmation of small molecule APOBEC3G DNA Deaminase Inhibitors via a fluorescence-based single-stranded DNA deaminase assay. [Related pubchem assays (depositor defined):AID493012, AID493028]; format: functional
# [12] = inhibitors of intracellular T. cruzi replication, confirmation, NIH3T3 host cells, beta-gal luminescence (AID 2044); format: functional, cell-based;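 also: intracellular parasites grown in NIH/3T3 mouse fibroblasts as host cells; luminescent beta-galactosidase reporter signal from transgenic T. cruzi replicating inside host cells; inhibitors lower the luminescence signal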
# [13] = cytotoxicity toward NIH3T3 fibroblasts, dose response, counter-screen, cell-based, ATP luminescence, mouse fibroblasts (AID 2010); format: functional;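 also: cells exposed to compound for about 90 hours before reading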
# [14] = molecular target: T3, Histone-lysine N-methyltransferase NSD2 (Homo sapiens, UniProt O96028); format: biochemical
# T3 sequence (O96028 whole entry): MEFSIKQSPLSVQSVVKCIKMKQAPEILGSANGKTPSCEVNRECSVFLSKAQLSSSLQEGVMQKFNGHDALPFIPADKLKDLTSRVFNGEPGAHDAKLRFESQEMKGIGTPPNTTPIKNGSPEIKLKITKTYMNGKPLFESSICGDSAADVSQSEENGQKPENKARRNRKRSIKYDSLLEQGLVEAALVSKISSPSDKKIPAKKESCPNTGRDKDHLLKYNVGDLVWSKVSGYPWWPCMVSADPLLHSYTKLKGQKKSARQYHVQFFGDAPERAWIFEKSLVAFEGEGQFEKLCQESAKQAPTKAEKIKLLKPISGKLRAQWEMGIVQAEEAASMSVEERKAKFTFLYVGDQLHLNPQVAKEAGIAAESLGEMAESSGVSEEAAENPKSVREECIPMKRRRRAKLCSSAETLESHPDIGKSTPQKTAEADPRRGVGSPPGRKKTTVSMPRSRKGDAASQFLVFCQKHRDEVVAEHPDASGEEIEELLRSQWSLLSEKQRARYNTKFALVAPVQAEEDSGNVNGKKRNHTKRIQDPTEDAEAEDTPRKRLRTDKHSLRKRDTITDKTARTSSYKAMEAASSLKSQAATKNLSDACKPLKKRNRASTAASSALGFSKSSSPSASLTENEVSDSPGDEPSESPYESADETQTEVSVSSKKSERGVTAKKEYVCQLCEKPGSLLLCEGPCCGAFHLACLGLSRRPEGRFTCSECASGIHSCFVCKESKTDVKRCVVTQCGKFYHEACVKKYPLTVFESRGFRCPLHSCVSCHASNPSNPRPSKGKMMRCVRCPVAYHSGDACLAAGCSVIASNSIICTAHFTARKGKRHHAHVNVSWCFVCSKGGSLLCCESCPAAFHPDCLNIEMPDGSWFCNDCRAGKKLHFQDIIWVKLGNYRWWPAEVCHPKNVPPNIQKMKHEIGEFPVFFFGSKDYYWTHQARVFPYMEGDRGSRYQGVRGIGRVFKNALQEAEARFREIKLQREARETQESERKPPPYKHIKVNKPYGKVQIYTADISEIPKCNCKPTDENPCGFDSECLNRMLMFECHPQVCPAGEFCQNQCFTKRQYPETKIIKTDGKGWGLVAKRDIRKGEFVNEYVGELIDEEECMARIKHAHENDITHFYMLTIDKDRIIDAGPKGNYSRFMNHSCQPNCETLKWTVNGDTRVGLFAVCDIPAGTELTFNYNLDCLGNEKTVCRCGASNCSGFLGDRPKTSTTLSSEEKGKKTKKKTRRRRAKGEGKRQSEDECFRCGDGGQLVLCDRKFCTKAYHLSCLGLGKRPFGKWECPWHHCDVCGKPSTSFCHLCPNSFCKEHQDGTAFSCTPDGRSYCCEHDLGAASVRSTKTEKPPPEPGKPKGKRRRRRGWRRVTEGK
# [15] = Luminescence Cell-Based Dose Confirmation HTS to Identify Activators of 5'UTR Stem-Loop Driven Alpha-Synuclein mRNA Translation in H4 Neuroglioblastoma Cells. [Related pubchem assays: 1829 (Project Summary), 1814 (Primary HTS)]; format: functional
# [16] = Luminescence Cell-Based Dose Response HTS to Identify Activators of Luciferase Translation or Activity in H4 […] Cells. [Related pubchem assays: 1829 (Project Summary), 1814 (Primary HTS)]; format: functional
# H4 = assay: Luminescence Cell-Based Dose Response HTS to Identify Activators of 5'UTR Stem-Loop Driven Prion Protein mRNA Translation in H4 Neuroglioblastoma Cells. [Related pubchem assays: 1829 (Project Summary), 1814 (Primary HTS)]; format: functional; conditions: Homo sapiens
# Leucine aminopeptidase = molecular target: T4, Leucine aminopeptidase (Plasmodium falciparum 3D7, UniProt Q8IL11); assay: P. falciparum M17LAP inhibitors, primary screen, biochemical, fluorogenic H-Leu-NHMec substrate, 1536-well (AID 1619); format: functional
# T4 sequence (Q8IL11 whole entry): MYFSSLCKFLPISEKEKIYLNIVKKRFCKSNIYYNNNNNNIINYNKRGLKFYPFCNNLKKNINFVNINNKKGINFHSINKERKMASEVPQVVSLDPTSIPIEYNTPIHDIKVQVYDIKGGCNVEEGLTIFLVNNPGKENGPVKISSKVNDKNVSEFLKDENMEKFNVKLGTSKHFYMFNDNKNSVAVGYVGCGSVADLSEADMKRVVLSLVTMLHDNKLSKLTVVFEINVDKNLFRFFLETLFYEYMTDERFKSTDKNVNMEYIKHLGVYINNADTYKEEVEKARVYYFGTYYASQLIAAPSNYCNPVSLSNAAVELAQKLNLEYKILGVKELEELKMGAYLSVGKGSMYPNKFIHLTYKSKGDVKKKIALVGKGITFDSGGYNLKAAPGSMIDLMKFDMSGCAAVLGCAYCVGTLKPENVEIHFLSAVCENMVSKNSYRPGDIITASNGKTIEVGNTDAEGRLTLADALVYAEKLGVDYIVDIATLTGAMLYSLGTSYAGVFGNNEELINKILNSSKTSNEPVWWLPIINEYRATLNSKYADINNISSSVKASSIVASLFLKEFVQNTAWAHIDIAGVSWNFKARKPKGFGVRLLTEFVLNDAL
# Sequence of Glucose-6-phosphate 1-dehydrogenase (P11413 whole entry): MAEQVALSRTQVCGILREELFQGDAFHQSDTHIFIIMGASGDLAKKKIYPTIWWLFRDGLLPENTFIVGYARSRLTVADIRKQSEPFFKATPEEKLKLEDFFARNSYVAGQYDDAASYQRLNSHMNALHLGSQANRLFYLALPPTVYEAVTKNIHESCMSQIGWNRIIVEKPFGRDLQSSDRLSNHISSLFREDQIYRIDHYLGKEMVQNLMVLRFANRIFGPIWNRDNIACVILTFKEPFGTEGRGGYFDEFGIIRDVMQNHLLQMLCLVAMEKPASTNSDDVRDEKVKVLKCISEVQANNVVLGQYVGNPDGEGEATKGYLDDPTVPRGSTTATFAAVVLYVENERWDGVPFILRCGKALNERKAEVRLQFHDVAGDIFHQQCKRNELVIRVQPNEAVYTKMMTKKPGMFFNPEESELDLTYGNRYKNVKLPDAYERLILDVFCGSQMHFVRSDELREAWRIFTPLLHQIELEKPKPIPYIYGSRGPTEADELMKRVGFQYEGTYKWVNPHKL
# Sequence of SUMO-activating enzyme (Q9UBE0 whole entry): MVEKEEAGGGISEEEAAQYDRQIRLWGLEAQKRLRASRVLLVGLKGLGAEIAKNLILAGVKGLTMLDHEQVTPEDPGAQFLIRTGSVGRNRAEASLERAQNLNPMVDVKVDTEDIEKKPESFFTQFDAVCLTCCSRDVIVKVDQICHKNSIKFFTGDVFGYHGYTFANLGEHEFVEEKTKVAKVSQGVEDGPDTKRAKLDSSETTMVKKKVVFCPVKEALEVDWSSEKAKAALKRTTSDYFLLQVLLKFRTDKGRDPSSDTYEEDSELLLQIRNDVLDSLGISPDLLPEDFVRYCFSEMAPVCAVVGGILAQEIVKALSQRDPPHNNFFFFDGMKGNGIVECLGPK
# Sequence of SUMO-activating enzyme (Q9UBT2 whole entry): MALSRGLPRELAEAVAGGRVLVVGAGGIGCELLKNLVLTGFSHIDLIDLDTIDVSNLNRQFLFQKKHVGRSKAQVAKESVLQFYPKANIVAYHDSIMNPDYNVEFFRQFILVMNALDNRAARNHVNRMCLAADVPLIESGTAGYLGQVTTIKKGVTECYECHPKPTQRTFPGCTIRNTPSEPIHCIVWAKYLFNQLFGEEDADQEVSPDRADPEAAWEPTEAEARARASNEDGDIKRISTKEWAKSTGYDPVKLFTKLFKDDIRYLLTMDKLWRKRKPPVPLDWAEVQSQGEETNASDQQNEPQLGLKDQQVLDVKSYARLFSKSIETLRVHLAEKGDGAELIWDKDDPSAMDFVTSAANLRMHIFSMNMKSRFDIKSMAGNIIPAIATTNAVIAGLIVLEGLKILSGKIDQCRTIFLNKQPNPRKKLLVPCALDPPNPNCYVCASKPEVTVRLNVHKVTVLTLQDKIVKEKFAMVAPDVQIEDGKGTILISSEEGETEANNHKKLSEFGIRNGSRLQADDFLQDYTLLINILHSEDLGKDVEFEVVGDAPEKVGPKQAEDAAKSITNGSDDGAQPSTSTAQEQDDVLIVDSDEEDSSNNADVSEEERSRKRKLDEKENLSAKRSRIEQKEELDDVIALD
# T2 sequence (P49327 whole entry, the tested form may be a part): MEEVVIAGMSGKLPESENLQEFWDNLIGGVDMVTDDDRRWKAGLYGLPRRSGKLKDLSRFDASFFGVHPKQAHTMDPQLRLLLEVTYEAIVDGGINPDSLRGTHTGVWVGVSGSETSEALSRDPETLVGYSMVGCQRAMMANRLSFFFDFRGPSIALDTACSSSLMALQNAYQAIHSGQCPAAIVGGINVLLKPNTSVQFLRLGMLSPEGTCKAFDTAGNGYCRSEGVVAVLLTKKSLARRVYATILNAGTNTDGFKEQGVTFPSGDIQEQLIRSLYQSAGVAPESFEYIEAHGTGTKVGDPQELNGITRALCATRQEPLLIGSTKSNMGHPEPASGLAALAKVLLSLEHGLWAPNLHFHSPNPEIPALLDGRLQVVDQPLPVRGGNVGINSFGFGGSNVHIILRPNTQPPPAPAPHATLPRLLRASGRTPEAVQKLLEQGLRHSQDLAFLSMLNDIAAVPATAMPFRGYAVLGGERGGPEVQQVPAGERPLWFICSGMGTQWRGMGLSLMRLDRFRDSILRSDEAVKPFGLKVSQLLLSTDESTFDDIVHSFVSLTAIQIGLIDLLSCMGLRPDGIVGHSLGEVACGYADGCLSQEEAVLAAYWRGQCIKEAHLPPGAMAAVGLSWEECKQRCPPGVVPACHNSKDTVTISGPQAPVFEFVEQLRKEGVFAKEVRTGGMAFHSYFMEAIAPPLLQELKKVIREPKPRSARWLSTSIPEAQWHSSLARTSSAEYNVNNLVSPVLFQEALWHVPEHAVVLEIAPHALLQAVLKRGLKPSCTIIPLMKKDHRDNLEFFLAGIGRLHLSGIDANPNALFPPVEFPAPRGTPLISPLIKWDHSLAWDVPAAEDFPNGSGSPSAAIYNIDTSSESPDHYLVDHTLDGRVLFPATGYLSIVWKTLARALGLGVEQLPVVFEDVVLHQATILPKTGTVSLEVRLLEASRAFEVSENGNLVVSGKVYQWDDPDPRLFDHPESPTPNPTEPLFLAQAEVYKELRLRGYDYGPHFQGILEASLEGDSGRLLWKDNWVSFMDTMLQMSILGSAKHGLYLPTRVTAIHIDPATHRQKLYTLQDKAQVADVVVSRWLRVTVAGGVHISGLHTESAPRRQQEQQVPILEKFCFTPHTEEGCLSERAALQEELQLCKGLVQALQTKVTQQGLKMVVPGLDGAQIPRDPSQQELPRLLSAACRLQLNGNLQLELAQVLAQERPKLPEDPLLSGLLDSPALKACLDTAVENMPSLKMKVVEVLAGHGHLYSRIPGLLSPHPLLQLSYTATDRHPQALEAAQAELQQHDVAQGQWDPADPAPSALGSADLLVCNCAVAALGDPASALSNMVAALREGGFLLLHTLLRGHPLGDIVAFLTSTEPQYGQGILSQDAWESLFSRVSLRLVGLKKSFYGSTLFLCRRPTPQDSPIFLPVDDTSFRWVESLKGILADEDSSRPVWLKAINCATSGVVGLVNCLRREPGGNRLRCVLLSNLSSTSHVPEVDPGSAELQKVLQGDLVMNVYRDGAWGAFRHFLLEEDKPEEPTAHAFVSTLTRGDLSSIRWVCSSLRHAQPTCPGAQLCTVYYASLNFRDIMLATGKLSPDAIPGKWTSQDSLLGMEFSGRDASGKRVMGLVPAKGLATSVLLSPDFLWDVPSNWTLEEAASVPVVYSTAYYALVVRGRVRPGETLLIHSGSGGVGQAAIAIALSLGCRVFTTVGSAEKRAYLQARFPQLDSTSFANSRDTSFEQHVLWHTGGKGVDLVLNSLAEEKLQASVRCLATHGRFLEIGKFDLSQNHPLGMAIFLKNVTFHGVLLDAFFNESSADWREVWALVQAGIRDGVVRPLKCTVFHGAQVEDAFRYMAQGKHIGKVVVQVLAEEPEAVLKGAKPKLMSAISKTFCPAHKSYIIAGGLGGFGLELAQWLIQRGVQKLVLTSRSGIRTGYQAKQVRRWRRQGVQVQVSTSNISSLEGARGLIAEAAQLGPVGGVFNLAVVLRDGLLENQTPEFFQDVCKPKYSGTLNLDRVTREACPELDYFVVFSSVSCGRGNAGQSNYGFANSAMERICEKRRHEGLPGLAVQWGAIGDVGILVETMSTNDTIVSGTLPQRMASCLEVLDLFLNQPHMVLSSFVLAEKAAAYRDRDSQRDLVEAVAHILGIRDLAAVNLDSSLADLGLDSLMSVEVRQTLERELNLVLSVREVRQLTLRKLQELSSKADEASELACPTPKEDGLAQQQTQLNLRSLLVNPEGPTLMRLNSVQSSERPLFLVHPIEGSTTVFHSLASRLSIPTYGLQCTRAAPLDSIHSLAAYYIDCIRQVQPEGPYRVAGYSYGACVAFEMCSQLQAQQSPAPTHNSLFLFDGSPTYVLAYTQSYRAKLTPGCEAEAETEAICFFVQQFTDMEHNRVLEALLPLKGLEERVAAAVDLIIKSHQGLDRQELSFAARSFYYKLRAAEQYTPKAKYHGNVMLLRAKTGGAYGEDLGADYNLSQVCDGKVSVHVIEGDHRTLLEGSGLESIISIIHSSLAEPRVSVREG
# Sequence of Cytochrome P450 2C9 (P11712 whole entry): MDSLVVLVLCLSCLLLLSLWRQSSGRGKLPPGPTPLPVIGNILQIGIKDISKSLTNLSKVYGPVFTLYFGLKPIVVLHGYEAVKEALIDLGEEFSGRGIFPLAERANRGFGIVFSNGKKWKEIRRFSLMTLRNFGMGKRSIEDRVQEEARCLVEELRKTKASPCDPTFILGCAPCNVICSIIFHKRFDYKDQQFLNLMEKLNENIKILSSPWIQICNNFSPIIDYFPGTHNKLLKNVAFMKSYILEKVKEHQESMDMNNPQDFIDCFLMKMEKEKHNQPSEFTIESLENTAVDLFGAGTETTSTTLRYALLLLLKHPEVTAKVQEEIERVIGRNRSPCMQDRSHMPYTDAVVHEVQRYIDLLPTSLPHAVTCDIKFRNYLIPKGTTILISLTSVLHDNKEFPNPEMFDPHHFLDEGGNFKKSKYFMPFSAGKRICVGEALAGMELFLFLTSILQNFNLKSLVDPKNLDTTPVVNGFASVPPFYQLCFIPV
# Sequence of DNA dC->dU-editing enzyme APOBEC-3G (Q9HC16 whole entry): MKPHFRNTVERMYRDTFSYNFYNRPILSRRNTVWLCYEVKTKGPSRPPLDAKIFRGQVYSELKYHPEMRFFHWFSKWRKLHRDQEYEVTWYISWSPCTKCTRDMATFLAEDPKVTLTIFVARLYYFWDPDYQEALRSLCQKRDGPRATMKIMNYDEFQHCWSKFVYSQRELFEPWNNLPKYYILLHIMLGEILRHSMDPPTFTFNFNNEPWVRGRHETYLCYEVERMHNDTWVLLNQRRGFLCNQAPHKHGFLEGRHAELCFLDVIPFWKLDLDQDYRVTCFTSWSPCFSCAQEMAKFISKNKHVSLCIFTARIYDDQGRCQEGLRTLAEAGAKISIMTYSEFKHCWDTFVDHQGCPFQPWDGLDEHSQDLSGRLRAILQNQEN
structure (smiles),measurement,setting,value
C=CCNC(=O)C(C#N)c1nc2ccccc2nc1N1CCN(Cc2ccccc2)CC1 (stereo not drawn),IC50,Prothrombin,> 50 µM (inconclusive)
CCOC(=O)c1c(N)sc(C(=O)N2CCCCC2)c1C,IC50,[1],> 47.1 µM (inactive)
same,EC50,[2],> 53 µM (inactive)
Cc1ccc(/C=C2\SC(=S)N(CCCC(=O)NC3CCCC3)C2=O)cc1,IC50,[3],> 80 µM (inactive)
C=CCSc1nnc(NC(=O)c2ccc(Cl)nc2)s1,IC50,[4],> 80 µM (inactive)
CCn1c2ccccc2c2cc(/C=N/n3cnnc3S)ccc21,CC50,[5],25.1 µM (active)
same,IC50,[4],> 80 µM (inactive)
same,AC50,HEK293,10.7 µM (active)
same,AC50,Cytochrome P450 2C9,31.6 µM (inconclusive)
Cc1ccc2c(SCC(=O)NCc3ccco3)nc(-c3ccc(F)cc3)nc2c1,IC50,SUMO-activating enzyme,50.1 µM (active)
COc1ccccc1NC(=O)c1sc2nc(-c3ccco3)ccc2c1N,IC50,SUMO-activating enzyme,45.2 µM (active)
Cn1c(=O)n(C)c2cc(NS(=O)(=O)c3ccccc3)ccc21,IC50,[3],> 80 µM (inactive)
COc1ccc(CNc2nc(-c3cccnc3)nn2C(=O)CC(C)C)cc1,IC50,Prothrombin,0.336 µM (active)
O=C(COC(=O)CCc1ccccc1)Nc1ncc(Cl)cc1Cl,IC50,Prothrombin,8.03 µM (active)
Cc1c(CC(=O)NCCCC(=O)O)c(=O)oc2cc3c(cc12)CCC(C)(C)O3,IC50,[3],> 80 µM (inactive)
COc1ccnc(CSC(=N)Nc2ccc(F)cc2)c1,IC50,[1],> 47.1 µM (inactive)
same,EC50,[2],32 µM (active)
CCCc1cc(=O)c2c(O)ccc(OC)c2o1,AC50,HEK293,> 350 µM (inactive)
CC(C(=O)NCc1ccccn1)N1C(=O)c2ccccc2C1=O (stereo not drawn),IC50,Prothrombin,> 50 µM (not active)
Cc1cc(S(=O)(=O)c2ccc(Cl)cc2)nc(S(=O)(=O)c2ccc(Cl)cc2)c1C#N,AC50,HEK293,9.23 µM (active)
same,AC50,[6],2.83 µM (active)
same,AC50,[7],25.9 µM (active)
same,AC50,[8],21.2 µM (active)
same,IC50,Fatty acid synthase [9],7.57 µM (active)
same,IC50,Fatty acid synthase [10],10.4 µM (active)
O=C(NC1CCCCCC1)c1ccc[nH]c1=S,IC50,[11],21.9 µM (active)
CC/C(NCCCN(CC)CC)=C1/C(=O)NC(=O)N(C2CCCCC2)C1=O,EC50,[12],0.171 µM (active)
same,EC50,[13],> 60 µM (not active)
same,AC50,[14],> 20 µM (inactive)
CCOC(=O)c1cnn(-c2ncnc3sc4c(c23)CCC4)c1N,EC50,[15],13.8 µM (active)
same,EC50,[16],29.1 µM (active)
same,EC50,H4,11.9 µM (active)
same,IC50,Prothrombin,> 50 µM (not active)
CN(C)CCNc1ncnc2oc(-c3ccccc3)c(-c3ccccc3)c12,AC50,[14],> 20 µM (inactive)
Cc1c(O)ccc(-c2[nH]ncc2-c2nc3ccccc3s2)c1O,IC50,Leucine aminopeptidase,6.97 µM (active)
O=C(O)c1cccc(NC(=S)N/N=C/c2c[nH]c3ccccc23)c1,IC50,Leucine aminopeptidase,17.6 µM (active)
CC(C)(C)c1ccc(C(=O)Nc2nnc(SCC(=O)NCC3CCCO3)s2)cc1 (stereo not drawn),AC50,HEK293,2.11 µM (active)
Cc1sc(NC(=O)C2CCCCC2C(=O)O)c(C(N)=O)c1-c1ccccc1 (stereo not drawn),IC50,Leucine aminopeptidase,11 µM (active)
